The values below are quoted from earlier work in patent publication US20030109488A1, “Methods for treating dry eye” (Alcon, Inc., priority 2001, published 2003).

The data set relates to human conjunctival epithelial cells. The note with it: background statement, no data given.

In the case of `CCCCC[C@H](O)/C=C/C=C\C/C=C\C/C=C\CCCC(=O)O` [15-HETE], the “secretion of mucin-1 (MUC-1)” value is recorded as “increase the secretion of mucin-1 (MUC-1)”.
